Key:
[1] = test system: CD8+/TCR- FC from NOD or NOR BM; assay: Activation markers and morphology of sorted CD8+/TCR- FC cultured with CpG-ODN; format: cell-based, mouse
Description: (§1) FIG. 2. Expression of activation markers on FC. (A) Sorted CD8^+/TCR^− FC (100,000) from NOD or NOR BM were cultured with medium or CpG-ODN for 18 h and stained with anti-MHC Class II I-A^d, CD86 or CD80 FITC labeled mAb, or isotype controls. The data shown are representative of three experiments. (B) Level of expression of activation markers on FC with or without CpG-ODN stimulation. The results are percent of CD8^+/TCR^− FC total from 3 separate experiments. (C) The morphology of FC was examined using Wright-Giemsa staining under optical microscopy after CpG-ODN stimulation. (D) P-preDC FC were cultured with CpG-ODN or medium only. Culture cell-free supernatants were collected after 18 h and MIP-1α/CCL3, MCP-1/CCL2, RANTES/CCL5, IP-10, IL-6, GM-CSF, and TNF-α were measured by LINCO plex multiplex immunoassay.
(§2) FC were cultured alone or with 1 μM TLR-9 ligand CpG-ODN 1668 (TCCATGACGTTCCGATGCT) (SEQ ID NO:1) (GIBCO BRL Custom Primers) (13) for 18 h. Supernatants were assayed for cytokines by Linco Diagnostic (St Charles, Mo.) using LINCOplex™ Multiplex immunoassay and cells were stained with anti-CD80, anti-CD86, or anti-MHC class II I-A^d (39-10-8) FITC mAb, with appropriately matched isotype controls.
(§3) Wright-Giemsa staining was performed on cytospins of 100,000 FC after fixed in methanol. Slides were examined for dendritic morphology under optical microscopy.
We evaluated whether NOD FC resemble NOR FC in response to CpG-ODN stimulation.

p-preDC FC = settings: cited from earlier work
[2] = test system: p-preDC FC from NOD or NOR mice; assay: Chemokine and cytokine production by p-preDC FC after CpG-ODN stimulation (LINCOplex multiplex immunoassay); format: cell-based, mouse
Description: as §1, §2
We also examined chemokine and cytokine production by NOD and NOR p-preDC FC after CpG-ODN stimulation. In the presence of CpG-ODN, p-preDC FC produced more MIP-1α/CCL3, RANTES/CCL5, IP-10, IL-6, and TNF-α, compared to the level of those in absence of stimulation (FIG. 2D).

[3] = test system: FC in peripheral blood of NOD mice; assay: FL treatment of NOD donor mice: phenotype and morphology of FL-mobilized PB FC; format: in vivo, mouse
Description: (§4) FIG. 6. FL-mobilized PB FC facilitate HSC engraftment in allogeneic recipients. Recombinant human FL (expressed from CHO cells) (kindly provided by Amgen; Thousand Oaks, Calif.) was diluted in 0.1% mouse serum albumin (MSA; Sigma, St Louis, Mo.) at a concentration of 100 μg/ml. Donor NOD female mice were injected with 10 μg of FL once daily subcutaneously from day 0 to day 9. Control mice received saline injections. (A) Flow cytometric analysis of subpopulations in sorted FL-mobilized PB FC. (B) Sorted FL-PB FC were examined after Wright-Giemsa staining by optical microscopy. (C) Survival of recipients of HSC plus FL-mobilized PB FC in allogeneic model (NOD→B10). B10 recipients were conditioned with 950 cGy TBI and transplanted with […] from untreated NOD donors either alone or mixed with 30,000 purified FC from untreated NOD bone marrow, or from FL-mobilized PB FC from NOD mice. (D) and (E) Multilineage typing of representative B10 recipients of NOD HSC alone or recipients of NOD HSC plus FL-PB FC. Multilineage data are from PB 3 months after transplantation and analyzed based on the lymphoid and myeloid gate. Data shown are from one representative recipient. A total of 3 to 5 recipients were analyzed per group.
Sorted FC (purity was ≧95%) were incubated with Fc receptor block (anti-CD16/CD32) before staining with lineage-specific markers: anti-CD11 FITC, CD11b APC, CD14 FITC, NK1.1 FITC, DX5 FITC, B220 PerCP, Gr-1 APC and CD19 APC, as previously described (4). Sorted FC were analyzed for p-preDC FC as B220^+/CD11c^+/CD11b^− using Cell Quest Software (Becton Dickinson).
as §3
To test whether FL-treatment can restore the function of NOD FC, the phenotype and function of FL-PB FCs were evaluated. NOD mice were treated with FL for 10 days. FC were sorted from PB, and sorted FC were stained with B220, CD11c, CD19, NK1.1DX5, and CD11b mAbs.

PB p-preDC = settings: administration of FL into human volunteers; cited from earlier work
[4] = test system: HSC engraftment in B10 recipients; assay: Facilitation of HSC engraftment by FL-mobilized PB FC in allogeneic recipients (NOD to B10); format: in vivo, mouse
Description: as §4
In the syngeneic model, recipients were conditioned with 950 cGy TBI from a Cesium source (Nordion, Ontario, ON, Canada) and transplanted with 500 HSC±30,000 FC populations by tail vein injection≧6 h after irradiation (14). In the allogeneic model, recipients conditioned with 950 cGy TBI were transplanted with 5,000 HSC±30,000 FL-PB FC (4).
Engraftment of donor cells was evaluated by PBL typing using 3-color flow cytometry, as previously described (15).
It was next evaluated whether FL-treatment can restore the facilitating function of NOD FC. […] To test function of FL-PB FC, HSC were sorted from BM of untreated NOD mice and FC from the PB of FL-treated NOD mice. Conditioned B10 recipients received 5,000 HSC plus 30,000 FL-PB FC. Control mice were transplanted with 5,000 HSC±30,000 FC from BM of untreated NOD mice. […] 13% and 20% of recipients of HSC alone (n=9) or HSC plus FC (n=8) from untreated NOD mice survived over 120 days, respectively (FIG. 6C).
Three-color flow cytometric analysis was performed.

NOD mice = settings: cited from earlier work
[5] = in response to CpG-ODN stimulation
[6] = with CpG-ODN compared to absence of stimulation, 18 h supernatant
[7] = FL-PB FC versus untreated NOD BM FC
[8] = NOD mice, 10 μg FL once daily s.c. for 10 days, FC sorted from PB
[9] = treatment of NOD donors with FL

CpG-ODN: TLR-9 ligand CpG-ODN 1668 (TCCATGACGTTCCGATGCT) (SEQ ID NO:1) (listed as DNA, chemistry not given here)
CD80 expression on NOD FC ([1]; NOD BM FC, 1 μM CpG-ODN, 18 h): markedly decreased | CD86 expression on NOD FC ([1]; NOD BM FC, 1 μM CpG-ODN, 18 h): up-regulated | Morphology of NOD FC ([1]; NOD FC after CpG treatment, Wright-Giemsa): did not exhibit a mature morphology | CD86 expression on NOR FC ([1]; NOR BM FC, 1 μM CpG-ODN, 18 h): up-regulated | Morphology / activation state of NOR FC ([1]; NOR FC after CpG-ODN stimulation, compared to NOD FC, Wright-Giemsa): more activated state | Interferon (IFN)-α and tumor necrosis factor (TNF)-α production by p-preDC FC (p-preDC FC; in response to TLR-9 ligand (CpG-ODN) stimulation): produce | CD4+/CD25- T cells differentiation into CD4+/CD25+/FoxP3+ Treg cells in vitro (p-preDC FC; p-preDC FC stimulated with CpG-ODN): promote | IL-6 amount, NOR p-preDC FC compared to NOD p-preDC FC ([2]; after CpG-ODN stimulation): 5 × | MIP-1α/CCL3 amount, NOR p-preDC FC compared to NOD p-preDC FC ([2]; after CpG-ODN stimulation): 2.1 × | RANTES/CCL5 amount, NOR p-preDC FC compared to NOD p-preDC FC ([2]; after CpG-ODN stimulation): 3.5 × | TNF-α amount, NOR p-preDC FC compared to NOD p-preDC FC ([2]; after CpG-ODN stimulation): 1.9 × | GM-CSF production by NOD p-preDC FC [2, 5]: do not | GM-CSF production by NOR p-preDC FC [2, 5]: more efficiently | IL-6 production by p-preDC FC [2, 6]: produced more | IP-10 production by p-preDC FC [2, 6]: produced more | MIP-1α/CCL3 production by p-preDC FC [2, 6]: produced more | RANTES/CCL5 production by p-preDC FC [2, 6]: produced more | TNF-α production by p-preDC FC [2, 6]: produced more

B1: FL: Recombinant human FL (expressed from CHO cells), provided by Amgen; human FLT3 ligand sequence shown in SEQ ID NO:2 (protein)
chain: MTVLAPAWSPTTYLLLLLLLSSGLSGTQDCSFQHSPISSDFAVKIRELSDYLLQDYPVTVASNLQDEELCGGLWRLVLAQRWMERLKTVAGSKMQGLLERVNTEIHFVTKCAFQPPPSCLRFVQTNISRLLQETSEQLVALKPWITRQNFSRCLELQCQPDSSTLPPPWSPRPLEATAPTAPQPPLLLLLLLPVGLLLLAAAWCLHWQRTRRRTPRPGEQVPPVPSPQDLLLVEH
modifications: Homo sapien
Percentage of CD19+ FC [3, 7]: remained at same levels | Percentage of p-preDC FC [3, 7]: remained at same levels | B220-/CD11c+/CD11b+ DC subpopulation in FL-PB FC [3, 8]: significant increase | NK1.1+DX5+ subpopulation in FL-PB FC [3, 8]: significant increase | Total number of FCs in peripheral blood [3, 9]: expanded | Activation state (dendritic morphology) of FL mobilized NOD PB FC ([3]; versus untreated NOD BM FC, Wright-Giemsa): more activated state | Number of PB p-preDC in humans (PB p-preDC): increase | Recipients survived 120 days ([4]; B10 recipients (950 cGy TBI) of 5,000 untreated NOD HSC plus 30,000 PB FC from FL-treated NOD mice, n=8): 63% | Engraftment of HSC ([4]; HSC plus PB FC from FL-treated NOD mice in B10 recipients): significantly enhanced | Multilineage donor chimerism ([4]; recipients of HSC plus FL-PB FC, followed >4 months, three-color flow cytometry): showed donor chimerism for multilineages | Facilitating function of NOD FC in vivo [4, 9]: restored | Diabetes progression (NOD mice; FL treatment of NOD mice): significant delay | Production of defective mature myeloid DC, plasmacytoid DC in spleen and pancreatic lymph nodes (NOD mice; FL treatment of NOD mice): restored production | Treg in pancreatic lymph nodes (NOD mice; FL treatment of NOD mice): significantly increased | Insulitis and progression to diabetes (NOD mice; prediabetic NOD mice treated with FL): significantly decreased
